Data published in US9328138B2 (priority 2011, dated 2016).
Structures can show the parent of a compound that is named as a salt.

Assays:
[1] = molecular target: HCV NS3 protease genotype 3a (3A-1) (Hepatitis C virus genotype 3a, UniProt Q81258); assay: HCV NS3 protease time-resolved fluorescence (TRF) assay, genotype 3a; assay type: biochemical; conditions: Ki 3a
Method in brief: (§1)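 Pre-incubation of NS3/NS4A protease with inhibitor for 10 min in pH 7.5 HEPES buffer with 10 mM DTT; 25 nM TRF peptide substrate, hydrolysis 6 h at room temperature. Fluorescence read at ex 340/em 615 nm with 400 μs delay, enzyme level set for S/B 5-20; IC50 by four-parameter fit.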

[2] = molecular target: T1, HCV genotype 1b (BK) NS3 modified enzyme with a R155K mutation (Hepatitis C virus genotype 1b, UniProt P26663, R1181K); assay: HCV NS3 protease time-resolved fluorescence (TRF) assay, genotype 1b R155K; assay type: biochemical; conditions: Ki 1b R155K
T1 construct: HCV genotype 1b (BK) NS3 modified enzyme
Method in brief: as §1

[3] = genotype 1b (BK) NS3 R155K, single value
[4] = first of two values printed in the cell (not explained)
[5] = second of two values printed in the cell (not explained)

| SMILES | Ki [1] | Ki [2, 3] | Ki [2, 4] | Ki [2, 5] |
| --- | --- | --- | --- | --- |
| C=C[C@@H]1C[C@]1(NC(=O)[C@@H]1C[C@@H]2CN1C(=O)[C@H](C(C)(C)C)NC(=O)O[C@@H]1CCC[C@H]1CCCCCc1c(nc3ccccc3c1OCCCN1CCOCC1)O2)C(=O)NS(=O)(=O)C1CC1 [Example 98, (3aR,S,10S,12R,24aR)-7-tert-butyl-N-{(1R,2S)-1-[(cyclopropyl-sulfonyl)carbamoyl]-2-ethenylcyclopropyl}-19-[3-(morpholin-4-yl)propoxy]-5,8-dioxo-1,2,3,3a,5,6,7,8,11,12,20,21,22,23, 24,24a-hexadecahydro-10H-9,12-methanocyclopenta [18,19][1,10,3,6]dioxadiazacyclo-nonadecino[11,12-b]quinoline-10-carboxamide] | 2900 pM | 180 pM | – | – |
| C=C[C@@H]1C[C@]1(NC(=O)[C@@H]1C[C@@H]2CN1C(=O)[C@H](C(C)(C)C)NC(=O)O[C@@H]1C[C@H]1CCCCCc1c(nc3ccccc3c1OCCCN1CC3(CCC3)C1)O2)C(=O)NS(=O)(=O)C1(C)CC1 [Example 154, (1aR,5S,8S,10R,22aR)-17-[3-(2-azaspiro[3.3]hept-2-yl)propoxy]-5-tert-butyl-N-[(1R,2S)-2-ethenyl-1-{[(1-methylcyclopropyl)sulfonyl]carbamoyl}cyclopropyl]-3,6-dioxo-1,1a,3,4,5,6,9,10,18,19,20, 21,22,22a-tetradecahydro-8H-7,10-methanocyclopropa[18,19] [1,10,3,6]dioxadiazacyclononadecino [11,12-b]quinoline-8-carboxamide] | 1500 pM | 110 pM | – | – |
| C=C[C@@H]1C[C@]1(NC(=O)[C@@H]1C[C@@H]2CN1C(=O)[C@H](C1CCCCC1)NC(=O)O[C@@H]1C[C@H]1CCCCCc1c(nc3ccccc3c1OC1CCN(CC3CC3)CC1)O2)C(=O)NS(=O)(=O)C1(C)CC1 [Example 238, 4-{[(1aR,5S,8S,10R,22aR)-5-cyclohexyl-8-{[(1R,2S)-2-ethenyl-1-{[(1-methylcyclopropyl)sulfonyl]carbamoyl}cyclopropyl]carbamoyl}-3,6-dioxo-1,1a,3,4,5,6,9,10,18,19,20,21,22,22a-tetradecahydro-8H-7,10-methanocyclopropa[18,19][1,10,3,6]dioxadiazacyclononadecino[11,12-b]quinolin-17-yl]oxy}-1-(cyclopropylmethyl)piperidinium formate] | 900 pM | – | 31 pM | 47 pM |
| C=C[C@@H]1CC1(NC(=O)[C@@H]1C[C@@H]2CN1C(=O)[C@H](C(C)(C)C)NC(=O)O[C@@H]1C[C@H]1CCCCCc1c(nc3ccccc3c1CN1CCOCC1)O2)C(=O)NS(=O)(=O)C1(C)CC1 (stereo partly drawn) [Example 248, potassium {[(1R,2S)-1-({[(1aR,5S,8S,10R,22aR)-5-tert-butyl-17-(morpholin-4-ylmethyl)-3,6-dioxo-1,1a,3,4,5,6,9,10,18,19,20,21,22,22a-tetradecahydro-8H-7,10-methanocyclopropa[18,19][1,10,3,6]dioxadiazacyclononadecino[11,12-b]quinolin-8-yl]carbonyl}amino)-2-ethenylcyclopropyl]carbonyl}[(1-methylcyclopropyl)sulfonyl]azanide] | 40200 pM | – | 100 pM | 348 pM |
| C=C[C@@H]1CC1(NC(=O)[C@@H]1C[C@@H]2CN1C(=O)[C@H](C1CCCCC1)NC(=O)O[C@@H]1C[C@H]1CCCCCc1c(nc3ccccc3c1OCCCN1CC(F)C1)O2)C(=O)NS(=O)(=O)C1(C)CC1 (some centres unmarked) [Example 250] | 4450 pM | – | 24 pM | 160 pM |
| C=C[C@@H]1C[C@]1(NC(=O)[C@@H]1C[C@@H]2CN1C(=O)[C@H](C(C)(C)C)NC(=O)O[C@@H]1C[C@H]1CCCCCc1c(nc3ccccc3c1OC1CCN(CC3CC3)CC1)O2)C(=O)NS(=O)(=O)C1(C)CC1 [Example 230, (1aR,5S,8S,10R,22aR)-5-tent-butyl-17-{[1-(cyclopropylmethyl)piperidin-4-yl]oxy}-N-[(1R,2S)-2-ethenyl-1-{[(1-methylcyclopropyl)sulfonyl]carbamoyl}cyclopropyl]-3,6-dioxo-1,1a,3,4,5,6,9,10,18,19,20,21,22,22a-tetradecahydro-8H-7,10-methanocyclopropa[18,19][1,10,3,6] dioxadiazacyclononadecino[11,12-b]quinoline-8-carboxamide] | 380 pM | 65 pM | – | – |
| C=C[C@@H]1C[C@]1(NC(=O)[C@@H]1C[C@@H]2CN1C(=O)[C@H](C(C)(C)C)NC(=O)O[C@@H]1C[C@H]1CCCCCc1c(nc3ccccc3c1OCCN1CCOC(C)(C)C1)O2)C(=O)NS(=O)(=O)C1(C)CC1 [Example 173, (1aR,5S,8S,10R,22aR)-5-tert-butyl-17-[2-(2,2-dimethylmorpholin-4-yl)ethoxy]-N-[(1R,2S)-2-ethenyl-1-{[(1-methylcyclopropyl)sulfonyl]carbamoyl}cyclopropyl]-3,6-dioxo-1,1a,3,4,5,6,9,10,18,19,20,21, 22,22a-tetradecahydro-8H-7,10-methanocyclopropa[18,19][1,10,3,6] dioxadiazacyclononadecino[11,12-b] quinoline-8-carboxamide] | 9500 pM | 340 pM | – | – |
| C=C[C@@H]1C[C@]1(NC(=O)[C@@H]1C[C@@H]2CN1C(=O)[C@H](C(C)(C)C)NC(=O)O[C@@H]1C[C@H]1CCCCCc1c(nc3ccccc3c1OCC1CCN(CCOC)CC1)O2)C(=O)NS(=O)(=O)C1(C)CC1 [Example 228, (1aR,5S,8S,10R,22aR)-5-tert-butyl-N-[(1R,2S)-2-ethenyl-1-{[(1-methylcyclopropyl)sulfonyl]carbamoyl}cyclopropyl]-17-{[1-(2-methoxyethyl)piperidin-4-yl]methoxy}-3,6-dioxo-1,1a,3,4,5,6,9,10,18,19,20,21,22,22a-tetradecahydro-8H-7,10-methanocyclopropa[18,19][1,10,3,6] dioxadiazacyclononadecino[11,12-b]quinoline-8-carboxamide] | 470 pM | 110 pM | – | – |
| C=C[C@@H]1C[C@]1(NC(=O)[C@@H]1C[C@@H]2CN1C(=O)[C@H](C(C)(C)C)NC(=O)O[C@@H]1C[C@H]1CCCCCc1c(nc3cc(F)ccc3c1OCCCN1CCCC1)O2)C(=O)NS(=O)(=O)C1(C)CC1 [Example 151, (1aR,5S,8S,10R,22aR)-5-tert-butyl-N-[(1R,2S)-2-ethenyl-1-{[(1-methylcyclopropyl)sulfonyl]carbamoyl}cyclopropyl]-14-fluoro-3,6-dioxo-17-[3-(pyrrolidin-1-yl)propoxy]-1,1a,3,4,5,6,9,10,18, 19,20,21,22,22a-tetradecahydro-8H-7,10-methanocyclopropa[18,19][1,10,3,6] dioxadiazacyclononadecino[11,12-b] quinoline-8-carboxamide] | 620 pM | 74 pM | – | – |
| C=CC1C[C@]1(NC(=O)[C@@H]1C[C@@H]2CN1C(=O)[C@H](C(C)(C)C)NC(=O)O[C@@H]1CCC[C@H]1CCCCCc1c(nc3ccccc3c1OCCN1CCOCC1)O2)C(=O)NS(=O)(=O)C1(COCCOC)CC1 (stereo partly drawn) [Example 65, (3aR,7S,10S,12R, 24aR)-7-tert-butyl-N-{(1R,2S)-2-ethenyl-1-[({1-[(2-methoxyethoxy)methyl]cyclopropyl}sulfonyl)carbamoyl]cyclopropyl}-19-[2-(morpholin-4-yl)ethoxy]-5,8-dioxo-1,2,3,3a,5,6,7,8,11, 12,20,21,22,23,24, 24a-hexadecahydro-10H-9,12-methanocyclopenta [18,19][1,10,3,6] dioxadiaza-cyclononadecino [11,12-b]quinoline-10-carboxamide] | 16000 pM | 560 pM | – | – |
